# Key:
# mice = experiment: in vivo
# Protocol: (§1) The samples are put in a solution either in water or in a mixture of water-DMSO (3:2; v/v) so as to obtain solutions of varying concentrations,either lower than or equal to 130 g·L^-1; the volumes injected are calculated on the basis of 0.2 mL for a mouse body weight of 20 g.
# (§2) The toxicity is evaluated starting from aqueous solutions, either buffered or not with NaH2 PO4 or else with Na2 HPO4, or else after addition of a stoichiometric quantity of NaHCO3.
# (§3) The 2-methyl-3-hydroxypyridine-4(1H)-one derivatives of glycerol (14), of xylitol (17), of mono-acetone xylose (12) and of solketal (11) were injected by I. V. route.
# (§4) The 2-methyl-3-hydroxypyridine-4(1H)-one compound of diacetone xylitol (10) was injected by I. P. route.
# in vivo = settings: mouse, in vivo
# Protocol: as §1, §2, §3, §4
# [1] = male and female mice, I.V., (maximum solubility)
smiles,measurement,setting,value
"Cc1c(O)c(=O)ccn1CC1OC(C)(C)OC1C1COC(C)(C)O1 (centres unmarked) [Compound 10, 1-(2',3': 4',5'-di-O-isopropylidene-xylityl)-2-methyl-3-hydroxypyridine-4(1H)-one]",toxicity compared with L1,mice; mice,weaker toxicity than L1
same,Macroscopic lesions of visceral organs,"mice; mouse, in vivo, ip",No visceral organ presented macroscopic lesions
same,Mortality (number of mice),"mice; mouse, in vivo, ip, 325 mg/kg",0
same,Secondary effects,"mice; mouse, in vivo, ip, 325 mg/kg",none (5/5)
same,Mortality (number of mice),"mice; mouse, in vivo, ip, 650 mg/kg",0
same,Secondary effects,"mice; mouse, in vivo, ip, 650 mg/kg",none (5/5)
same,LD50,"in vivo; ip, LD50",> 650 mg/kg
same,solubility at the doses studied,"Solubility in water; acute toxicity doses, compared with L1",less soluble at the doses studied
same,solubility in water,Solubility in water; water,weak
"Cc1c(O)c(=O)ccn1CC1COC(C)(C)O1 (centres unmarked) [Compound 11, 1-(2',3'-O-isopropylidene-glyceryl)-2-methyl-3-hydroxypyridine-4(1H)-one]",toxicity compared with L1,mice; mice,toxicity higher than that of L1
same,LD50 ± SD,"mice; mouse, in vivo, iv",745 ± 84 mg/kg
same,neurophysiological effects,"mice; mouse, in vivo, iv",induces adverse neurophysiological effects
same,Mortality (number of mice),"mice; mouse, in vivo, iv, 500 mg/kg",0
same,Mortality times,"mice; mouse, in vivo, iv, 650 mg/kg",3 min
same,Mortality (number of mice),"mice; mouse, in vivo, iv, 800 mg/kg",2
same,Mortality (number of mice),"mice; mouse, in vivo, iv, 1000 mg/kg",4
same,Secondary effects,"mice; mouse, in vivo, iv, 1000 mg/kg",1 min. convulsive phase followed by 10 min. of drop in spontaneous activity (10/10)
same,Mortality (number of mice),"mice; mouse, in vivo, iv, 1300 mg/kg",5
same,Mortality times,"mice; mouse, in vivo, iv, 1300 mg/kg",30-90
same,Secondary effects,"mice; mouse, in vivo, iv, 1300 mg/kg",death preceded by a marked convulsive phase (10/10)
same,LD50,"in vivo; iv, LD50 ± SD",817 ± 75 mg/kg
"Cc1c(O)c(=O)ccn1C[C@H]1O[C@@H]2OC(C)(C)O[C@@H]2[C@H]1O [Compound 12, 1-(1',2'-O-isopropylidene-α-D-xylofuranose-5-yl)-2-methyl-3-hydroxypyridine-4-(1H)-one]",LD10,"mice; female mice, I.V.",1000 mg/kg
same,Acute toxicity in mice,"mice; male mice, I.V.",totally innocuous at 1300 mg.kg^-1
same,toxicity compared with L1,mice; mice,less toxic than L1
same,first toxic effects (=LD10),"mice; mice, I.V.",1300 mg/kg
same,Cause of death,"mice; mouse, in vivo, iv, 1000 mg/kg",respiratory deficiency
same,Mortality times,"mice; mouse, in vivo, iv, 1000 mg/kg",4 min
same,Mortality times,"mice; mouse, in vivo, iv, 1300 mg/kg",360 to 1080 min
"Cc1c(O)c(=O)ccn1CC(O)CO (centres unmarked) [Compound 14, 1-glyceryl-2-methyl-3-hydroxypyridine-4(1H)-one]",Mortality (number of mice),"mice; female, I.V., 1300 mg/kg, water 60/DMSO 40, 5 mice",0
same,Mortality (number of mice),"mice; female, I.V., 1300 mg/kg, water, 5 mice",0
same,Acute toxicity in mice,mice; [1],totally innocuous at 1300 mg.kg^-1
same,Mortality (number of mice),"mice; male, I.V., 1300 mg/kg, water 60/DMSO 40, 5 mice",0
same,Mortality (number of mice),"mice; male, I.V., 1300 mg/kg, water, 5 mice",0
same,toxicity at 1300 mg/kg,"mice; mice, I.V., 1300 mg.kg^-1, running text",non-toxic
same,solubility,Solubility in water; water,> 130 mg/mL
"Cc1c(O)c(=O)ccn1CC(O)C(O)C(O)CO (centres unmarked) [Compound 17, 1-xylityl-2-methyl-3-hydroxypyridine-4(1H)-one]",Acute toxicity in mice,mice; [1],totally innocuous at 1000 mg.kg^-1
same,toxicity compared with L1,mice; mice,less toxic than L1
same,first toxic effects (=LD10),"mice; mice, I.V.",1300 mg/kg
same,Onset of significant decrease in spontaneous activity after injection,"mice; mouse, in vivo, iv",~2 h
same,Mortality (number of mice),"mice; mouse, in vivo, iv, 650 mg/kg",0
same,Secondary effects,"mice; mouse, in vivo, iv, 650 mg/kg",none (5/5)
same,Mortality (number of mice),"mice; mouse, in vivo, iv, 1000 mg/kg",0
same,Secondary effects,"mice; mouse, in vivo, iv, 1000 mg/kg",none (5/5)
same,Mortality (number of mice),"mice; mouse, in vivo, iv, 1300 mg/kg",0
"Cc1c(O)c(=O)ccn1C [Compound L1, 1.2-dimethyl-3-hydroxypyridine-4(1H)-one, reference compound]",Secondary effects,"mice; mouse, in vivo, ip, 650 mg/kg, pH 7",spontaneous decrease in activity xx min. before death (5/5)
same,Secondary effects,"mice; mouse, in vivo, iv, 325 mg/kg, pH 2.5","irritation at injection, spontaneous decrease in activity 2-4 min. (5/5)"
same,mortality,in vivo; 1300 mg/kg,100%

# Source: patent US6177409A, “Method for the site specific synthesis of novel 3-hydroxypyridin-4(1H)ons derivatives from aminomonosaccharides or aminoitols, products obtained by this method and their applications” (priority 1996, dated 2001)
